Measured values: paper PMC10013843 (Molecular psychiatry, 2022)

Tests used:
[1] = test system: rats; conditions: cited from earlier work
[2] = biological target: mu-opioid receptors, MOR (Rattus norvegicus, UniProt P33535); conditions: cited from earlier work
[3] = biological target: kappa-opioid receptors, KOR (Rattus norvegicus, UniProt P34975); conditions: cited from earlier work
[4] = biological target: MOR (OPRM1) (Homo sapiens, UniProt P35372); conditions: cited from earlier work
[5] = biological target: KOR (OPRK1) (Homo sapiens, UniProt P41145); conditions: cited from earlier work
[6] = test system: MOR and KOR; conditions: cited from earlier work
[7] = test system: rats; test: Heroin self-administration and substitution; format: in vivo, rat; conditions: 0.5 mg/kg/inf IV
[8] = test system: rats; conditions: cited from earlier work; remark: listed apart in the source
[9] = biological target: T1, HCN1 channel (Homo sapiens, UniProt O60741); test: HCN1 channel functional interaction; format: biochemical
T1 sequence (O60741 1-890): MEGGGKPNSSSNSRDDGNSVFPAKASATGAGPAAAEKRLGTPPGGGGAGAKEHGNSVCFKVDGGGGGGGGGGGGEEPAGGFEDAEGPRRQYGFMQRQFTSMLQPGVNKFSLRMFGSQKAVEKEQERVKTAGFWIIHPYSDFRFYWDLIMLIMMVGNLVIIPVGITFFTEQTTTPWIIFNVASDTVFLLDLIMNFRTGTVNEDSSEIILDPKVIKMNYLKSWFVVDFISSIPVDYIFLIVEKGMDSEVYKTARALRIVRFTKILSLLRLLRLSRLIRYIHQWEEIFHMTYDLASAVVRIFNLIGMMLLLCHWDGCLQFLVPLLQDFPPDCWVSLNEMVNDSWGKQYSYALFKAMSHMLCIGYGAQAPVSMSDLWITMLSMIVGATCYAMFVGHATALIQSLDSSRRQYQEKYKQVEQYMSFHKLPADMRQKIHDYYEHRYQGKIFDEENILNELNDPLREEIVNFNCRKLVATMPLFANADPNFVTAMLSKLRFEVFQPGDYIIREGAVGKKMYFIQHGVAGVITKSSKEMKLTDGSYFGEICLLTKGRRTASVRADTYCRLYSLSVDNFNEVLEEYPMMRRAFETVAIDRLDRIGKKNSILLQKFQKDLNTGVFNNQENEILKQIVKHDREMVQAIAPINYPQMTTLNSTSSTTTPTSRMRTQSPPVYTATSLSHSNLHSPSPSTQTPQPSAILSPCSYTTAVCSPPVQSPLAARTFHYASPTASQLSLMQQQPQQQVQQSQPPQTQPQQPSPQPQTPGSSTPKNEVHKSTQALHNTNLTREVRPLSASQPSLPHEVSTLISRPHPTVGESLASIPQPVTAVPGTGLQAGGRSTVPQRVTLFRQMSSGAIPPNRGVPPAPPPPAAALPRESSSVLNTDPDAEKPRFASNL

[10] = biological target: T1, HCN1 channel; conditions: cited from earlier work
[11] = biological target: sigma-1 receptors (Rattus norvegicus, UniProt Q9R0C9); conditions: cited from earlier work
Chain of sigma-1 receptors (Q9R0C9 whole entry): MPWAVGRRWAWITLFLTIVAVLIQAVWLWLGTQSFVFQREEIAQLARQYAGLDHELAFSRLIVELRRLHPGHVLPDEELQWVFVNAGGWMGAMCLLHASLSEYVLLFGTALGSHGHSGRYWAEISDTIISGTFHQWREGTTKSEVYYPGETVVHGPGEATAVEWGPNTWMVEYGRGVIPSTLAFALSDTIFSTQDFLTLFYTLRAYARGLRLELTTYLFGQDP

Chain of kappa-opioid receptors, KOR (P34975 whole entry): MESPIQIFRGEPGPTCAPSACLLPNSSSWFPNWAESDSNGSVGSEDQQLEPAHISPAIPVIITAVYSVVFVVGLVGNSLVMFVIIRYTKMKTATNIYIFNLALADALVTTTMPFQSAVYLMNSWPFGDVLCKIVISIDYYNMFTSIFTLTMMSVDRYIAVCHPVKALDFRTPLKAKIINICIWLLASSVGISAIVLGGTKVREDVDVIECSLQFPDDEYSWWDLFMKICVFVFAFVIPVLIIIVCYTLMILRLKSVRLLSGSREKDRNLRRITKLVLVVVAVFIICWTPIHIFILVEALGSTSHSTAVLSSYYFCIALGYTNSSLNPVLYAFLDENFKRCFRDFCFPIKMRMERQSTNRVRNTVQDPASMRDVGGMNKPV
Chain of mu-opioid receptors, MOR (P33535 whole entry): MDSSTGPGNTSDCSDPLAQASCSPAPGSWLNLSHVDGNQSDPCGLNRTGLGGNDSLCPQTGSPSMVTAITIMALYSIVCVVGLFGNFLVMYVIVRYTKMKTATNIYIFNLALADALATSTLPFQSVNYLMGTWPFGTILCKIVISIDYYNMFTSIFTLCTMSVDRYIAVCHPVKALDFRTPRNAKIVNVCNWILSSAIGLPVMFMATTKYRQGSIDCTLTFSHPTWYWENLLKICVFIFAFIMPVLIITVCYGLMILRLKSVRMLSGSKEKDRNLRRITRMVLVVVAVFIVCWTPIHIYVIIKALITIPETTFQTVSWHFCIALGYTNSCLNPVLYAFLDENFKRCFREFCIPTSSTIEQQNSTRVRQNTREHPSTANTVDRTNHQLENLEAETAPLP
Chain of MOR (OPRM1) (P35372 whole entry): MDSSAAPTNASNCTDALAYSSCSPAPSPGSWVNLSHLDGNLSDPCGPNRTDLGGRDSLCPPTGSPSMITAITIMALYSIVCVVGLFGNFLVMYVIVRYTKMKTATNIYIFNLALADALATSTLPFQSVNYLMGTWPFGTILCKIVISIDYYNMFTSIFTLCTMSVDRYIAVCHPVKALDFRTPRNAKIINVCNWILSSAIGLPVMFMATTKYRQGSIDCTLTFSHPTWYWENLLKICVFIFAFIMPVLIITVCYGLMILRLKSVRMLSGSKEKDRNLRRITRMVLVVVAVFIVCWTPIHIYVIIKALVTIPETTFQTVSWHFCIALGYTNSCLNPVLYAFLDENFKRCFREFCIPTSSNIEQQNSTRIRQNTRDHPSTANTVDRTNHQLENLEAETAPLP
Chain of KOR (OPRK1) (P41145 whole entry): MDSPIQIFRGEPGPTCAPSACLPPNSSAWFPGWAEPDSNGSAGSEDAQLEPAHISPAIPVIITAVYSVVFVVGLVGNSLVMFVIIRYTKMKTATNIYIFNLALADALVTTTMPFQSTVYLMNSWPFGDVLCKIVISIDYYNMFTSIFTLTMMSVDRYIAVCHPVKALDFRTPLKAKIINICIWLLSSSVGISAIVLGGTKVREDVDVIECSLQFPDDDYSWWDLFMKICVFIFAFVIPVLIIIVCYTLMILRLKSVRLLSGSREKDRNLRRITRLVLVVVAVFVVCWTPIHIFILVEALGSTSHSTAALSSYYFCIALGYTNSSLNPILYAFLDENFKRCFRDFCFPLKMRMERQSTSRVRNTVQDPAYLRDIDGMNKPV

## N[C@@]1(c2ccccc2Cl)CCC[C@@H](O)C1=O [(2S,6S;2R,6R)-HNK, (2S,6S;2R,6R)-Hydroxynorketamine]
[1]
  effect on acute morphine nociception or tolerance: no effect

## CN[C@@]1(c2ccccc2Cl)CCCCC1=O [(R)-ketamine]
[2]
  binding to mu (MOR) opioid receptors: bind
[3]
  binding to kappa (KOR) opioid receptors: bind
[4]
  MOR signaling, inhibition of cAMP accumulation: partial agonists
[5]
  KOR signaling, inhibition of cAMP accumulation: partial agonists
[6]
  β-arrestin signaling: do not activate

## CN[C@]1(c2ccccc2Cl)CCCCC1=O [(S)-ketamine]
[7]
  pressing on first session after heroin substitution: increased their pressing
  self-administration on successive sessions after heroin substitution: escalation of self-administration
[2]
  binding to mu (MOR) opioid receptors: bind
[3]
  binding to kappa (KOR) opioid receptors: bind
[6]
  β-arrestin signaling: do not activate
[8]
  self-administration in rats: is self-administered

## CNC1(c2ccccc2Cl)CCCCC1=O (racemic) [ketamine, (R,S)-ketamine]
[9]
  interaction with the HCN1 channel: neither (2R,6R)-HNK nor ketamine interacted
[10]
  effect on HCN1 channels: inhibit
[11]
  binding to sigma receptors: weak binding
